≈ marks a conversion by molar mass, not a printed value.
Columns and labels:
Assay type in all cases: functional
[1] = system: Acinetobacter calcoaceticus; assay: In vitro minimum inhibitory concentration required against Acinetobacter calcoaceticus GC 756 strain
Citrobacter freundii = assay: In vitro minimum inhibitory concentration required against Citrobacter freundii GC 2211 strain
Escherichia coli [2] = assay: In vitro minimum inhibitory concentration required against Escherichia coli ATCC 25922 strain
Escherichia coli [3] = assay: In vitro minimum inhibitory concentration required against Escherichia coli GC 1792 strain
Enterococcus faecium = assay: In vitro minimum inhibitory concentration required against Enterococcus faecium GC 1182 strain
Enterococcus faecalis = assay: In vitro minimum inhibitory concentration required against Enterococcus faecalis GC 842 strain
Enterobacter cloacae = assay: In vitro minimum inhibitory concentration required against Enterobacter cloacae GC 2209 strain
Morganella morganii = assay: In vitro minimum inhibitory concentration required against Morganella morganii GC 2213 strain
Pseudomonas aeruginosa [4] = assay: In vitro minimum inhibitory concentration required against Pseudomonas aeruginosa ATCC 27853 strain
Pseudomonas aeruginosa [5] = assay: In vitro minimum inhibitory concentration required against Pseudomonas aeruginosa GC 1544 oprD- strain
Sus scrofa = species on record: Sus scrofa; assay: Relative hydrolysis was measured by hog renal dehydropeptidase (DHP).
Staphylococcus aureus [6] = assay: In vitro minimum inhibitory concentration required against Staphylococcus aureus ATCC 29213 strain
Staphylococcus aureus [7] = assay: In vitro minimum inhibitory concentration required against Staphylococcus aureus GC 2220 MRSA strain
[8] = system: Stenotrophomonas maltophilia; assay: In vitro minimum inhibitory concentration required against Xanthomonas maltophilia GC 562 strain
Escherichia coli [9] = assay: In vitro minimum inhibitory concentration required against Escherichia coli GC 2205 strain
Escherichia coli [10] = assay: Effective single oral dose required for inhibition of Escherichia coli in mice
Escherichia coli [11] = assay: Effective single subcutaneous dose required for inhibition of Escherichia coli in mice
[12] = Acinetobacter calcoaceticus, read-out: MIC
[13] = Enterococcus faecium, read-out: MIC
[14] = Enterococcus faecalis, read-out: MIC
[15] = Escherichia coli, po, read-out: ED50
[16] = Escherichia coli, sc, read-out: ED50

Row | SMILES | Relative hydrolysis (Sus scrofa) | MIC [1, 12] [µg/mL] | MIC (Citrobacter freundii) [µg/mL] | MIC (Escherichia coli [2]) [µg/mL] | MIC (Escherichia coli [3]) [µg/mL] | MIC (Enterococcus faecium; [13]) [µg/mL] | MIC (Enterococcus faecalis; [14]) [µg/mL] | MIC (Enterobacter cloacae) [µg/mL] | MIC (Morganella morganii) [µg/mL] | MIC (Pseudomonas aeruginosa [4]) [µg/mL] | MIC (Pseudomonas aeruginosa [5]) [µg/mL] | MIC (Staphylococcus aureus [6]) [µg/mL] | MIC (Staphylococcus aureus [7]) [µg/mL] | MIC [8] [µg/mL] | MIC (Escherichia coli [9]) [µg/mL] | also measured
1 | C[C@@H](O)[C@H]1C(=O)N2C(C(=O)O)=C(SCCNC=N)C[C@H]12 [IMIPENEM ANHYDROUS] | 100 | – | – | – | ≤ 0.06 | – | – | ≤ 0.06 | – | – | – | ≤ 0.06 | – | – | – | ED50 (Escherichia coli [10]; [15]): 79 mg/kg; ED50 (Escherichia coli [11]; [16]): 0.67 mg/kg
2 | C[C@@H](O)[C@H]1C(=O)N2C(C(=O)O)=C(S[C@@H]3CN[C@H](C(=O)N(C)C)C3)[C@H](C)[C@H]12 [MEROPENEM] | 28 | 0.5 (≈ 1.3 µM) | ≤ 0.06 | ≤ 0.06 | ≤ 0.06 | > 128 | 2 (≈ 5.22 µM) | ≤ 0.06 | ≤ 0.06 | 0.25 (≈ 0.652 µM) | 4 (≈ 10.4 µM) | ≤ 0.06 | 8 (≈ 20.9 µM) | > 128 | ≤ 0.06 | –
3 | C[C@H]1C(SC2COC(CN)C2)=C(C(=O)O)N2C(=O)[C@H]([C@@H](C)O)C12 (stereo in doubt; 3a) [listing 1 of 2 here] | – | 1 (≈ 2.92 µM) | ≤ 0.06 | ≤ 0.06 | ≤ 0.06 | – | – | ≤ 0.06 | – | – | – | ≤ 0.06 | – | – | ≤ 0.06 | ED50 (Escherichia coli [10]; [15]): 3.7 mg/kg; ED50 (Escherichia coli [11]; [16]): 0.27 mg/kg
4 | C[C@H]1C(S[C@@H]2CO[C@H](CN)C2)=C(C(=O)O)N2C(=O)[C@H]([C@@H](C)O)C12 (some centres undefined) | 7.3 | 2 (≈ 5.84 µM) | 0.12 (≈ 0.35 µM) | ≤ 0.06 | ≤ 0.06 | 128 (≈ 374 µM) | 4 (≈ 11.7 µM) | ≤ 0.06 | 0.5 (≈ 1.46 µM) | 8 (≈ 23.4 µM) | 16 (≈ 46.7 µM) | ≤ 0.06 | 4 (≈ 11.7 µM) | > 128 | 0.12 (≈ 0.35 µM) | –
5 | C[C@H]1C(S[C@H]2CCO[C@@H]2CN)=C(C(=O)O)N2C(=O)[C@H]([C@@H](C)O)C12 (some centres undefined) | 18 | – | 1 (≈ 2.92 µM) | 0.5 (≈ 1.46 µM) | 0.5 (≈ 1.46 µM) | > 64 | 8 (≈ 23.4 µM) | 0.5 (≈ 1.46 µM) | 2 (≈ 5.84 µM) | 16 (≈ 46.7 µM) | 32 (≈ 93.5 µM) | 0.06 (≈ 0.175 µM) | 4 (≈ 11.7 µM) | > 64 | 0.25 (≈ 0.73 µM) | –
6 | C[C@H]1C(S[C@H]2CCO[C@H]2CN)=C(C(=O)O)N2C(=O)[C@H]([C@@H](C)O)C12 (some centres undefined) | 4.5 | 4 (≈ 11.7 µM) | 0.5 (≈ 1.46 µM) | 0.5 (≈ 1.46 µM) | 0.5 (≈ 1.46 µM) | 128 (≈ 374 µM) | 4 (≈ 11.7 µM) | 0.25 (≈ 0.73 µM) | 2 (≈ 5.84 µM) | 4 (≈ 11.7 µM) | 16 (≈ 46.7 µM) | 0.12 (≈ 0.35 µM) | 8 (≈ 23.4 µM) | > 128 | 0.5 (≈ 1.46 µM) | –
7 | C[C@H]1C(S[C@H]2CO[C@@H](CN)C2)=C(C(=O)O)N2C(=O)[C@H]([C@@H](C)O)C12 (some centres undefined) | 10 | 2 (≈ 5.84 µM) | 0.12 (≈ 0.35 µM) | ≤ 0.06 | ≤ 0.06 | > 128 | 4 (≈ 11.7 µM) | ≤ 0.06 | 0.5 (≈ 1.46 µM) | 16 (≈ 46.7 µM) | 32 (≈ 93.5 µM) | ≤ 0.06 | 8 (≈ 23.4 µM) | > 128 | ≤ 0.06 | –
8 | C[C@H]1C(SC2COC(CN)C2)=C(C(=O)O)N2C(=O)[C@H]([C@@H](C)O)C12 (stereo in doubt; 3b) [listing 1 of 2 here] | – | – | – | – | – | – | – | – | – | – | – | – | – | – | – | MIC [1]: 2 µg/mL (≈ 5.84 µM); ED50 (Escherichia coli [10]): 3.5 mg/kg; ED50 (Escherichia coli [11]): 0.28 mg/kg; MIC (Enterococcus faecium): 128 µg/mL (≈ 374 µM); MIC (Enterococcus faecalis): 2 µg/mL (≈ 5.84 µM)
9 | C[C@H]1C(S[C@H]2CO[C@H](CN)C2)=C(C(=O)O)N2C(=O)[C@H]([C@@H](C)O)C12 (some centres undefined) | – | 1 (≈ 2.92 µM) | ≤ 0.06 | ≤ 0.06 | ≤ 0.06 | > 128 | 2 (≈ 5.84 µM) | ≤ 0.06 | 0.25 (≈ 0.73 µM) | 2 (≈ 5.84 µM) | 8 (≈ 23.4 µM) | ≤ 0.06 | 8 (≈ 23.4 µM) | > 128 | ≤ 0.06 | –

More lines, main results first:

Row | Relative hydrolysis (Sus scrofa) | SMILES | MIC [1, 12] [µg/mL] | MIC (Citrobacter freundii) [µg/mL] | MIC (Escherichia coli [2]) [µg/mL] | MIC (Escherichia coli [3]) [µg/mL] | MIC (Enterococcus faecium; [13]) [µg/mL] | MIC (Enterococcus faecalis; [14]) [µg/mL] | MIC (Enterobacter cloacae) [µg/mL] | MIC (Morganella morganii) [µg/mL] | MIC (Pseudomonas aeruginosa [4]) [µg/mL] | MIC (Pseudomonas aeruginosa [5]) [µg/mL] | MIC (Staphylococcus aureus [6]) [µg/mL] | MIC (Staphylococcus aureus [7]) [µg/mL] | MIC [8] [µg/mL] | MIC (Escherichia coli [9]) [µg/mL] | also measured
10 | 37 | C[C@H]1C(S[C@H]2COC[C@@H]2CN)=C(C(=O)O)N2C(=O)[C@H]([C@@H](C)O)C12 (some centres undefined) | 8 (≈ 23.4 µM) | 1 (≈ 2.92 µM) | 0.5 (≈ 1.46 µM) | 0.5 (≈ 1.46 µM) | > 128 | 8 (≈ 23.4 µM) | 0.5 (≈ 1.46 µM) | 4 (≈ 11.7 µM) | 16 (≈ 46.7 µM) | 64 (≈ 187 µM) | 0.12 (≈ 0.35 µM) | 16 (≈ 46.7 µM) | > 128 | 0.5 (≈ 1.46 µM) | –
11 | 39 | C[C@H]1C(S[C@@H]2COC[C@H]2CN)=C(C(=O)O)N2C(=O)[C@H]([C@@H](C)O)C12 (some centres undefined) | 16 (≈ 46.7 µM) | 1 (≈ 2.92 µM) | 0.25 (≈ 0.73 µM) | 0.25 (≈ 0.73 µM) | > 128 | 8 (≈ 23.4 µM) | 0.25 (≈ 0.73 µM) | 4 (≈ 11.7 µM) | 32 (≈ 93.5 µM) | 64 (≈ 187 µM) | 0.12 (≈ 0.35 µM) | 16 (≈ 46.7 µM) | > 128 | 0.25 (≈ 0.73 µM) | –
12 | 8.5 | C[C@@H](O)[C@H]1C(=O)N2C(C(=O)O)=C(S[C@@H]3CCO[C@@H]3CN)[C@H](C)[C@H]12 | – | – | – | – | – | – | – | – | – | – | – | – | – | – | ED50 (Escherichia coli [10]; [15]): 3.8 mg/kg; ED50 (Escherichia coli [11]; [16]): 0.34 mg/kg
13 | < 1 | C[C@H]1C(S[C@@H]2COC[C@@H]2CN)=C(C(=O)O)N2C(=O)[C@H]([C@@H](C)O)C12 (some centres undefined) | – | – | – | – | – | – | – | – | – | – | – | – | – | – | –
14 | < 1 | C[C@H]1C(S[C@H]2COC[C@H]2CN)=C(C(=O)O)N2C(=O)[C@H]([C@@H](C)O)C12 (some centres undefined) | – | – | ≤ 0.06 | ≤ 0.06 | – | – | ≤ 0.06 | – | – | – | ≤ 0.06 | – | – | – | –
15 | 10 | C[C@H]1C(SC2COC(CN)C2)=C(C(=O)O)N2C(=O)[C@H]([C@@H](C)O)C12 (stereo in doubt; 3b) [listing 2 of 2 here] | – | – | – | – | – | – | – | – | – | – | – | – | – | – | –
16 | 19 | C[C@H]1C(SC2COC(CN)C2)=C(C(=O)O)N2C(=O)[C@H]([C@@H](C)O)C12 (stereo in doubt; 3a) [listing 2 of 2 here] | – | – | – | – | – | – | – | – | – | – | – | – | – | – | –
